Results on 15 compounds are retold here after US8802664B2 (Bioproject, priority 2010, dated 2014).

Counter-ions that a name gives are not always drawn.

The melting point is the temperature, or range, at which the solid turns liquid. Regarding `CN1CCC(OC(c2cccc(C#CCCCCN)c2)c2nc3ccccc3s2)CC1` (stereo not drawn) (as salt: oxalate) [Example 319, 6-{3-[benzothiazol-2-yl(1-methylpiperidin-4-yloxy)methyl]phenyl}hex-5-ynylamine], the melting point was found to be 135 °C.

Compound `CN1CCC(OC(c2cccc(OCC=CCN)c2)c2nc3ccccc3s2)CC1` (stereo not drawn) (as salt: oxalate) [Example 431, 4-{3-[benzothiazol-2-yl(1-methylpiperidin-4-yloxy)methyl]phenoxy}but-2-enylamine] had a melting point of 117 °C.

As for `CN1CCC(OC(c2nc3ccccc3[nH]2)c2cc(OC(F)(F)F)ccc2Cl)CC1` (stereo not drawn) (as salt: oxalate) [Example 524], the melting point worked out at 107 °C.

As for `CN1CCC(OC(c2cccc(SCCCF)c2)c2nc3ccccc3[nH]2)CC1` (stereo not drawn) (as salt: oxalate) [Example 508], the melting point was 85 °C.

As to `CN1CCC(NC(c2cccc(OCCF)c2)c2nc3ccccc3[nH]2)CC1` (stereo not drawn) (as salt: oxalate) [Example 180, {(1H-benzimidazol-2-yl)[3-(2-fluoro-ethoxy)phenyl]methyl}(1-methylpiperidin-4-yl)amine], the melting point was 155 °C.

`Cc1ccc(F)c(C(OC2CCN(C)CC2)c2nc3ccccc3[nH]2)c1` (stereo not drawn) (as salt: oxalate) [Example 490] yielded a melting point of 132 °C.

On to `CN1CCC(OC(c2cccc(CCCCCCNC(=N)N)c2)c2nc3ccccc3s2)CC1` (stereo not drawn) (as salt: hydrochloride) [Example 363, N-(6-{3-[benzothiazol-2-yl(1-methylpiperidin-4-yloxy)methyl]phenyl}hexyl)guanidine], for which the melting point turned out to be 90 °C.

Compound `CN1CCC(OC(c2ccc3occc3c2)c2nc3ccccc3s2)CC1` (stereo not drawn) (as salt: oxalate) [Example 46, 2-[benzofuran-5-yl(1-methylpiperidin-4-yloxy)methyl]benzothiazole] displayed a melting point of 153 °C.

Take `COc1cccc(COc2cccc(C(OC3CCN(C)CC3)c3nc4ccccc4s3)c2)c1` (stereo not drawn) (as salt: oxalate) [Example 185, 2-[[3-(3-methoxybenzyloxy)phenyl](1-methylpiperidin-4-yloxy)methyl]benzothiazole]: the melting point was found to be 77 °C.

The compound `CN1CCC(OC(c2cccc(C#CCCCNC(=N)N)c2)c2nc3ccccc3s2)CC1` (stereo not drawn) (as salt: hydrochloride) [Example 340, N-(5-{3-[benzothiazol-2-yl(1-methylpiperidin-4-yloxy)methyl]phenyl}pent-4-ynyl)guanidine] returned a melting point of 180 °C.

The compound `CNCCOc1cccc(C(OC2CCN(C)CC2)c2nc3ccccc3s2)c1` (stereo not drawn) (as salt: oxalate) [Example 279, (2-{3-[benzothiazol-2-yl(1-methylpiperidin-4-yloxy)methyl]phenoxy}ethyl)methyl-amine] showed a melting point of 125 °C.

Take `CN1CCC(OC(c2cccc(OCCN3CCCCC3)c2)c2nc3ccccc3[nH]2)CC1` (stereo not drawn) (as salt: oxalate) [Example 356, 2-{(1-methylpiperidin-4-yloxy)[3-(2-piperidin-1-yl-ethoxy)phenyl]methyl}-1H-benzimidazole]: the melting point is 160 °C.

Turning to `CN1CCC(OC(c2ccc3ccccc3c2)c2nc3ccccc3s2)CC1` (stereo not drawn) (as salt: hydrochloride) [Example 18, 2-[(1-methylpiperidin-4-yloxy)naphthalen-2-ylmethyl]benzothiazole], the melting point came to 198 °C.

Take `CN1CCC(OC(c2cccc(N3CCC(=O)C3)c2)c2nc3ccccc3s2)CC1` (stereo not drawn) (as salt: oxalate) [Example 443, 1-{3-[benzothiazol-2-yl(1-methylpiperidin-4-yloxy)methyl]phenyl}pyrrolidin-3-one]: the melting point came to 105 °C.

Consider `CN1CCC(OC(c2cccc(OCCF)c2)c2nc3ccccc3s2)CC1` (stereo not drawn) (as salt: oxalate) [Example 163, 2-[[3-(2-fluoroethoxy)phenyl](1-methylpiperidin-4-yloxy)methyl]benzothiazole], for which the melting point was 147 °C.
